Source: ChEMBL document CHEMBL3885861, “Open TG-GATES”

Organism: Rattus norvegicus
Test: Open TG-GATES - Regimen: Single
Assay type: toxicity, organism-based, Sprague-Dawley
Set-up: regimen Single, gender Male, age 6 weeks
Conditions: in vivo, po, 10 mg/kg, route gavage, dose level Middle; for APTT / Bas / Eos / Fbg / Hb / Ht / Lym / MCH / MCHC / MCV / Mono / Neu / PT / Plat / RBC / Ret / WBC: tissue Blood; for KIDNEY_L / KIDNEY_R / KIDNEY_TOTAL: tissue Kidney; for LIVER: tissue Liver; for A/G / ALP / ALT / AST / BUN / CRE / Ca / Cl / DBIL / GLC / IP / K / LDH / Na / PL / RALB / TBIL / TC / TG / TP / gamma-GTP: tissue Plasma

C=CCO [ALLYL ALCOHOL]
TERMINAL_BW (3 h): 220.3 g | APTT (3 h): 20.3 s | Bas (3 h): 0% | Eos (3 h): 1% | Fbg (3 h): 217.8 mg/dL | Hb (3 h): 13.7 g/dL | Ht (3 h): 39.5% | Lym (3 h): 79.4% | MCH (3 h): 21.3 pg | MCHC (3 h): 34.9% | MCV (3 h): 61 fL | Mono (3 h): 2.8% | Neu (3 h): 16.8% | PT (3 h): 12.5 s | Plat (3 h): 140.4 x10_4/uL | RBC (3 h): 648.2 x10_4/ul | Ret (3 h): 6.3% | WBC (3 h): 94.5 x10_2/uL | KIDNEY_L (3 h): 1 g | KIDNEY_R (3 h): 1 g | KIDNEY_TOTAL (3 h): 2 g | LIVER (3 h): 9.9 g | A/G (3 h): 1.5 | ALP (3 h): 1147.4 IU/L | ALT (3 h): 37.6 IU/L | AST (3 h): 69.6 IU/L | BUN (3 h): 10.2 mg/dL | CRE (3 h): 0.4 mg/dL | Ca (3 h): 10.6 mg/dL | Cl (3 h): 100.2 meq/L | DBIL (3 h): 0.3 mg/dL | GLC (3 h): 197.8 mg/dL | IP (3 h): 8.6 mg/dL | K (3 h): 3.7 meq/L | LDH (3 h): 209.2 IU/L | Na (3 h): 139.4 meq/L | PL (3 h): 170.4 mg/dL | RALB (3 h): 3.4 g/dL | TBIL (3 h): 0.4 mg/dL | TC (3 h): 77 mg/dL | TG (3 h): 204.8 mg/dL | TP (3 h): 5.6 g/dL | gamma-GTP (3 h): 1 IU/L | TERMINAL_BW (6 h): 220.1 g | APTT (6 h): 19.1 s | Bas (6 h): 0% | Eos (6 h): 1% | Fbg (6 h): 226.8 mg/dL | Hb (6 h): 13.2 g/dL | Ht (6 h): 38.1% | Lym (6 h): 76% | MCH (6 h): 22 pg | MCHC (6 h): 34.5% | MCV (6 h): 63.7 fL | Mono (6 h): 3.2% | Neu (6 h): 19.2% | PT (6 h): 12.1 s | Plat (6 h): 132 x10_4/uL | RBC (6 h): 598 x10_4/ul | Ret (6 h): 7.1% | WBC (6 h): 99.4 x10_2/uL | KIDNEY_L (6 h): 1 g | KIDNEY_R (6 h): 1 g | KIDNEY_TOTAL (6 h): 1.9 g | LIVER (6 h): 9.8 g | A/G (6 h): 1.4 | ALP (6 h): 1136.8 IU/L | ALT (6 h): 35 IU/L | AST (6 h): 74 IU/L | BUN (6 h): 8 mg/dL | CRE (6 h): 0.4 mg/dL | Ca (6 h): 10.7 mg/dL | Cl (6 h): 102.4 meq/L | DBIL (6 h): 0.2 mg/dL | GLC (6 h): 200.2 mg/dL | IP (6 h): 9.1 mg/dL | K (6 h): 3.8 meq/L | LDH (6 h): 221.4 IU/L | Na (6 h): 141.2 meq/L | PL (6 h): 164.2 mg/dL | RALB (6 h): 3.2 g/dL | TBIL (6 h): 0.2 mg/dL | TC (6 h): 77.8 mg/dL | TG (6 h): 114.4 mg/dL | TP (6 h): 5.5 g/dL | gamma-GTP (6 h): 1.2 IU/L | TERMINAL_BW (9 h): 215.5 g | APTT (9 h): 18 s | Bas (9 h): 0% | Eos (9 h): 1% | Fbg (9 h): 217 mg/dL | Hb (9 h): 13.3 g/dL | Ht (9 h): 38.6% | Lym (9 h): 80.4% | MCH (9 h): 21.5 pg | MCHC (9 h): 34.4% | MCV (9 h): 62.6 fL | Mono (9 h): 2.2% | Neu (9 h): 16.2% | PT (9 h): 12.3 s | Plat (9 h): 125.1 x10_4/uL | RBC (9 h): 617.6 x10_4/ul | Ret (9 h): 6.5% | WBC (9 h): 74.3 x10_2/uL | KIDNEY_L (9 h): 0.9 g | KIDNEY_R (9 h): 0.9 g | KIDNEY_TOTAL (9 h): 1.9 g | LIVER (9 h): 8.9 g | A/G (9 h): 1.5 | ALP (9 h): 1058 IU/L | ALT (9 h): 29 IU/L | AST (9 h): 62 IU/L | BUN (9 h): 9.2 mg/dL | CRE (9 h): 0.3 mg/dL | Ca (9 h): 10.5 mg/dL | Cl (9 h): 101.8 meq/L | DBIL (9 h): 0.07 mg/dL | GLC (9 h): 203.8 mg/dL | IP (9 h): 10.3 mg/dL | K (9 h): 3.8 meq/L | LDH (9 h): 163.4 IU/L | Na (9 h): 140 meq/L | PL (9 h): 132.6 mg/dL | RALB (9 h): 3.3 g/dL | TBIL (9 h): 0.1 mg/dL | TC (9 h): 67 mg/dL | TG (9 h): 60.6 mg/dL | TP (9 h): 5.5 g/dL | gamma-GTP (9 h): 0.8 IU/L | TERMINAL_BW (24 h): 231.2 g | APTT (24 h): 17.9 s | Bas (24 h): 0% | Eos (24 h): 1% | Fbg (24 h): 232.2 mg/dL | Hb (24 h): 13.5 g/dL | Ht (24 h): 39.7% | Lym (24 h): 79.2% | MCH (24 h): 20.8 pg | MCHC (24 h): 34% | MCV (24 h): 61 fL | Mono (24 h): 2.8% | Neu (24 h): 16.6% | PT (24 h): 11.9 s | Plat (24 h): 127.4 x10_4/uL | RBC (24 h): 650.8 x10_4/ul | Ret (24 h): 6% | WBC (24 h): 93.9 x10_2/uL | KIDNEY_L (24 h): 1 g | KIDNEY_R (24 h): 1 g | KIDNEY_TOTAL (24 h): 1.9 g | LIVER (24 h): 11.1 g | A/G (24 h): 1.3 | ALP (24 h): 1042.2 IU/L | ALT (24 h): 38.2 IU/L | AST (24 h): 65 IU/L | BUN (24 h): 15 mg/dL | CRE (24 h): 0.4 mg/dL | Ca (24 h): 10.8 mg/dL | Cl (24 h): 102.4 meq/L | DBIL (24 h): 0.08 mg/dL | GLC (24 h): 203.6 mg/dL | IP (24 h): 7.2 mg/dL | K (24 h): 3.8 meq/L | LDH (24 h): 200.4 IU/L | Na (24 h): 140.2 meq/L | PL (24 h): 152.6 mg/dL | RALB (24 h): 3.1 g/dL | TBIL (24 h): 0.1 mg/dL | TC (24 h): 79.4 mg/dL | TG (24 h): 99.4 mg/dL | TP (24 h): 5.5 g/dL | gamma-GTP (24 h): 1 IU/L
